Data taken from patent EP4806892A1, “CEREBLON E3 UBIQUITIN LIGASE INHIBITOR” (GAN & LEE PHARMACEUTICALS CO., LTD., priority 2023, dated 2025).
pIC50: −log10 of the molar value.

Target: E3 ubiquitin ligase CRBN (Homo sapiens, UniProt Q96SW2)
Test: CRBN competitive binding assay (HTRF, thalidomide-XL665 displacement)
Conditions: not given
Protocol: CRBN binding activity test kit (CEREBLON BINDING KITS (PE, 64BD CRBN PEG)).
The detection is based on homogeneous time-resolved fluorescence (HTRF) technology.
This kit uses a europium-labeled GST antibody (GST Eu Cryptate Antibody) as the donor and XL665-labeled thalidomide (Thalidomide-Red reagent) as the receptor. The donor binds to the GST-tagged CRBN protein.
The donor and acceptor were each diluted 50-fold using the buffer (PROTAC binding buffer 1) in the kit. The CRBN protein was diluted 45-fold. The 8 mM compound solution disclosed in the present invention was diluted 10-fold using the diluent (1 X diluent) in the kit, and then the dilutd solution was subjected to 5-fold gradient dilution of the diluent, diluted 7 times sequentially. […] The mixture was incubated at room temperature for 3 hours. The ratio of the acceptor and donor emission signals for each individual well was calculated.
IC50 value was calculated based on compound concentration, Ratio, and coefficient of variation using GraphPad Prism.

Row | Structure (SMILES) | pIC50
1 | O=C1CCN(c2cc3c(cc2F)N2CCNC[C@@H]2CCO3)C(=O)N1 [Example B13] | 5.35

Same assay, conditions: competition with XL665-labeled thalidomide for GST-tagged CRBN protein, 3 hours at room temperature

Row | Structure (SMILES) | pIC50
2 | O=C1CCC(c2ccc3c(c2)OC2(CCNCC2)CC3)C(=O)N1 (centres unmarked) [Example A4] | 6.26

Same assay, conditions: competition with XL665-labeled thalidomide for GST-tagged CRBN protein, 3 hours at room temperature; read-out: IC50

Row | Structure (SMILES) | pIC50
3 | O=c1ccn(-c2ccc3c(c2)OC2(CCNCC2)CC3)c(=O)[nH]1 [Example A1, 1-(spiro[chroman-2,4'-piperidin]-7-yl)pyrimidine-2,4(1H,3H)-dione] | 4.59
4 | O=C1CCN(c2ccc3c(c2)OC2(CCNCC2)CC3)C(=O)N1 [Example A2, 1-(spiro[chroman-2,4'-piperidin]-7-yl)dihydropyrimidine-2,4(1H,3H)-dione] | 5.82
5 | O=C1CCC2(CC1)CCc1ccc(N3CCC(=O)NC3=O)cc1O2 [Example A3, 1-(4'-oxospiro[chroman-2,1'-cyclohexan]-7-yl)dihydropyrimidine-2,4(1H,3H)-dione] | 6.23
6 | O=C1CCN(c2ccc3c(c2)OC2(CC3)CNC2)C(=O)N1 [Example A5, 1-(spiro[azetidine-3,2'-chroman]-7'-yl)dihydropyrimidine-2,4(1H,3H)-dione] | 5.51
7 | O=C1CCN(c2ccc3c(c2)CCC2(CCNCC2)O3)C(=O)N1 [Example A6, 1-(spiro[chromate-2,4'-piperidin]-6-yl)dihydropyrimidine-2,4(1H,3H)-dione] | 5.13
8 | O=C1CCN(c2ccc3c(c2)OCC2(CCNCC2)C3)C(=O)N1 [Example A7, 1-(spiro[benzopyran-3,4'-piperidin]-7-yl)dihydropyrimidine-2,4(1H,3H)-dione] | 4.90
9 | O=C1CCN(c2ccc3c(c2)CC2(CCNCC2)CO3)C(=O)N1 [Example A8, 1-(spiro[benzopyran-3,4'-piperidin]-6-yl)dihydropyrimidine-2,4(1H,3H)-dione] | 5.02
10 | O=C1CCN(c2ccc3c(c2)OCC32CCNCC2)C(=O)N1 [Example A9, 1-(2H-spiro[benzofuran-3,4'-piperidin]-6-yl)dihydropyrimidine-2,4(1H,3H)-dione] | 4.94
11 | CN1CC2(CCNCC2)Oc2cc(N3CCC(=O)NC3=O)ccc21 [Example A10, 1-(4-methyl-3,4-dihydrospiro[benzo[b][1,4]oxazine-2,4'-piperidin]-7-yl)dihydropyrimidine-2,4(1H,3H)-dione] | 6.04
12 | O=C1CCN(c2ccc3c(c2)OC2(CCNCC2)C3)C(=O)N1 [Example A11, 1-(3H-spiro[benzofuran-2,4'-piperidin]-6-yl)dihydropyrimidine-2,4(1H,3H)-dione] | 5.21
13 | O=C1CCN(c2ccc3c(c2)CC2(CCNCC2)O3)C(=O)N1 [Example A12, 1-(3H-spiro[benzofuran-2,4'-piperidin]-5-yl)dihydropyrimidine-2,4(1H,3H)-dione] | 4.87
14 | O=C1CCN(c2cccc3c2OCC32CCNCC2)C(=O)N1 [Example A13, 1-(2H-spiro[benzofuran-3,4'-piperidin]-7-yl)dihydropyrimidine-2,4(1H,3H)-dione] | 4.54
15 | O=C1CCN(c2ccc3c(c2)CCC2(CNC2)O3)C(=O)N1 [Example A14, 1-(spiro(azetidine-3,2'-benzodihydropyran)-6'-yl)dihydropyrimidine-2,4(1H,3H)-dione] | 5.08
16 | O=C1CCN(c2ccc3c(c2)OCC2(CNC2)C3)C(=O)N1 [Example A15] | 5.04
17 | O=C1CCN(c2ccc3c(c2)CC2(CNC2)CO3)C(=O)N1 [Example A16, 1-(spiro[azetidine-3,3'-chroman]-6'-yl)dihydropyrimidine-2,4(1H,3H)-dione] | 4.90
18 | O=C1CCN(c2ccc3c(c2)OCC32CCNCC2(F)F)C(=O)N1 (centres unmarked) [Example A17, 1-(3',3'-difluoro-2H-spiro[benzofuran-3,4'-piperidin]-6-yl)dihydropyrimidine-2,4(1H,3H)-dione] | 5.76

The next lines start with the values.

Row | pIC50 | Structure (SMILES)
19 | 5.23 | O=C1CCN(c2ccc3c(c2)OCCC2CNCCN32)C(=O)N1 (centres unmarked) [Example B1, 1-(2,3,4,4a,5,6-hexahydro-1H-benzo[b]pyrazino[1,2-d][1,4]oxazepin-9-yl)dihydropyrimidine-2,4(1H,3H)-dione]
20 | 5.21 | O=C1CCN(c2ccc3c(c2)OCC[C@H]2CNCCN32)C(=O)N1 [Example B2, (S)-1-(2,3,4,4a,5,6-hexahydro-1H-benzo[b]pyrazino[1,2-d][1,4]oxazepin-9-yl)dihydropyrimidine-2,4(1H,3H)-dione]
21 | 5.25 | O=C1CCN(c2ccc3c(c2)OCC[C@@H]2CNCCN32)C(=O)N1 [Example B3, (R)-1-(2,3,4,4a,5,6-hexahydro-1H-benzo[b]pyrazino[1,2-d][1,4]oxazepin-9-yl)dihydropyrimidine-2,4(1H,3H)-dione]
22 | 5.26 | O=C1CCN(c2cnc3c(c2)OCC[C@H]2CNCCN32)C(=O)N1 [Example B4, (S)-1-(7,7a,8,9,10,11-hexahydro-6H-pyrazino[1,2-d]pyrido[3,2-b][1,4]oxazepin-3-yl)dihydropyrimidine-2,4(1H,3H)-dione]
23 | 4.99 | O=C1CCN(c2cnc3c(c2)OCC[C@@H]2CNCCN32)C(=O)N1 [Example B5, (R)-1-(7,7a,8,9,10,11-hexahydro-6H-pyrazino[1,2-d]pyrido[3,2-b][1,4]oxirane-3-yl)dihydropyrimidine-2,4(1H,3H)-dione]
24 | 4.61 | O=C1CCN(c2ccc3c(c2)NC(=O)CC2CNCCN32)C(=O)N1 (centres unmarked) [Example B6, 1-(6-oxo-1,2,3,4,4a,5,6,7-octahydrobenzo[b]pyrazino[1,2-d][1,4]diazepin-9-yl)dihydropyrimidine-2,4(1H,3H)-dione]
25 | 5.42 | CN1CC[C@H]2CNCCN2c2ccc(N3CCC(=O)NC3=O)cc21 [Example B7, (S)-1-(7-methyl-1,2,3,4,4a,5,6,7-octahydrobenzo[b]pyrazino[1,2-d][1,4]diazepin-9-yl)dihydropyrimidine-2,4(1H,3H)-dione]
26 | 5.00 | O=C1CCN(c2ccc3c(c2)COC[C@H]2CNCCN32)C(=O)N1 [Example B8, (R)-1-(1,2,3,4,4a,5-hexahydro-7H-benzo[e]pyrazino[2,1-c][1,4]oxazepin-9-yl)dihydropyrimidine-2,4(1H,3H)-dione]
27 | 5.07 | O=C1CCN(c2ccc3c(c2)COC[C@@H]2CNCCN32)C(=O)N1 [Example B9, (S)-1-(1,2,3,4,4a,5-hexahydro-7H-benzo[e]pyrazino[2,1-c][1,4]oxazepin-9-yl)dihydropyrimidine-2,4(1H,3H)-dione]
28 | 5.48 | O=C1CCN(c2ccc3c(c2)NC(=O)C2CNCCN32)C(=O)N1 (centres unmarked) [Example B10, 1-(5-oxo-2,3,4,4a,5,6-hexahydro-1H-pyrazino[1,2-a]quinoxalin-8-yl)dihydropyrimidine-2,4(1H,3H)-dione]
29 | 5.42 | CN1CC2CNCCN2c2ccc(N3CCC(=O)NC3=O)cc21 (centres unmarked) [Example B11, 1-(6-methyl-2,3,4,4a,5,6-hexahydro-1H-pyrazino[1,2-a]quinoxalin-8-yl)dihydropyrimidine-2,4(1H,3H)-dione]
30 | 5.65 | COc1cc2c(cc1N1CCC(=O)NC1=O)OCC[C@H]1CN(C(C)=O)CCN21 [Example B12]
31 | 5.27 | COc1cc2c(cc1N1CCC(=O)NC1=O)OCC[C@H]1CNCCN21 [Example B14, (S)-1-(10-methoxy-2,3,4,4a,5,6-hexahydro-1H-benzo[b]pyrazino[1,2-d][1,4]oxazepin-9-yl)dihydropyrimidine-2,4(1H,3H)-dione]
32 | 5.43 | O=C1CCN(c2cc3c(cc2Cl)N2CCNC[C@@H]2CCO3)C(=O)N1 [Example B15, (S)-1-(10-chloro-2,3,4,4a,5,6-hexahydro-1H-benzo[b]pyrazino[1,2-d][1,4]oxazepin-9-yl)dihydropyrimidine-2,4(1H,3H)-dione]
